{"source": "patent US8633245B2", "about": "“PAI-1 inhibitor” (Institute of Medicinal Molecular Design, Inc., priority 2008, dated 2014)", "assay_type_in_all_cases": "biochemical", "key": {"recombinant human PAI-1 [1]": {"biological_target": "T1, recombinant human PAI-1 (Homo sapiens, UniProt P05121)", "T1 construct": "purchased Molecular Innovations, Inc", "T1 sequence (P05121 24-402)": "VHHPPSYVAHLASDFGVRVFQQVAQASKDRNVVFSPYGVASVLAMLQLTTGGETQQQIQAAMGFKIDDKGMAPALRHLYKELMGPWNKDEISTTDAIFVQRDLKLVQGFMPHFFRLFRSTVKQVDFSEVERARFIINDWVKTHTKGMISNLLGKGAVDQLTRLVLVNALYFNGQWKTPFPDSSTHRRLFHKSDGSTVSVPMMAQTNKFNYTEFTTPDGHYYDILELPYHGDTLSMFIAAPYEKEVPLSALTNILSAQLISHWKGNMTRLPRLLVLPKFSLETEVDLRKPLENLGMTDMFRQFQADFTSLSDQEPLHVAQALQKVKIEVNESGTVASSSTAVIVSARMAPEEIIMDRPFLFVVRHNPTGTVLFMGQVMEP", "assay": "Test Example 2: human PAI-1 inhibitory activity (tPA fluorogenic substrate, pH 7.4 HEPES buffer)", "settings": "for Inhibition Rate of PAI-1 Activity (%): HEPES buffer", "description": "0.1 M HEPES, 0.1 M NaCl. 1 mM EDTA. 0.1% Polyethylene glycol 8,000 (Hampton Research Corporation),\n2 mM Dimethyldecylphoshine oxide [Apo-10] (Fluka Corporation)"}, "recombinant human PAI-1 [2]": {"biological_target": "T1, recombinant human PAI-1", "assay": "Test Example 1: human PAI-1 inhibitory activity (tPA fluorogenic substrate, pH 7.5 Tris buffer)", "settings": "for Inhibition Rate of PAI-1 Activity (%): Tris buffer", "description": "50 mM Tris, 150 mM NaCl, 10 μg/ml BSA, 0.01% Tween80 (SIGMA-ALDRICH Corporation)"}, "recombinant rat PAI-1": {"biological_target": "T2, recombinant rat PAI-1 (Rattus norvegicus, UniProt P20961)", "T2 construct": "purchased Molecular Innovations, Inc", "T2 sequence (P20961 24-402)": "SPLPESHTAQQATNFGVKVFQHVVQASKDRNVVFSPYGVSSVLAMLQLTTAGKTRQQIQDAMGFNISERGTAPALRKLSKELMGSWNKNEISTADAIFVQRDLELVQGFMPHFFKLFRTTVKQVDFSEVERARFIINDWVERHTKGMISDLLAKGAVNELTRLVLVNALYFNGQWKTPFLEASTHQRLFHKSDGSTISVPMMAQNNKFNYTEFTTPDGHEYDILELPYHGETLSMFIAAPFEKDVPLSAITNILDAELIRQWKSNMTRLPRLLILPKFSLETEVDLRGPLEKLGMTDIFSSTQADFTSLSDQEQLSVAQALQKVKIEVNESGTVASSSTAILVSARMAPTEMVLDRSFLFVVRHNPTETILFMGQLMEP", "assay": "Test Example 3: rat PAI-1 inhibitory activity (as Test Example 2 with rat PAI-1)", "settings": "rat PAI-1", "procedure": "To this solution, 6 μl of 80 nM recombinant human PAI-1 (Molecular Innovations, Inc.) solution prepared with Tris buffer was added, and the plate was incubated for 5 minutes at room temperature. Furthermore, 30 μl of 800 IU/ml two-chain tPA (Activity Standard; American diagnostica, inc.) prepared with Tris buffer was added, and the mixed solution was incubated for 15 minutes at room temperature. Then, 30 μl of 400 μM fluorogenic substrate (Pyr-Gly-Arg-MCA; Peptide Institute, Inc.) for tPA prepared with Tris buffer was added and reacted for 30 minutes at room temperature."}}, "data": [{"smiles": "CC(C)(C)c1ccc(COc2ccc(-c3ccc(OC(F)(F)F)cc3)cc2OCC(=O)O)cc1", "note": "[Compound 105]", "values": [{"measurement": "IC50", "setting": "recombinant human PAI-1 [1]; human PAI-1, calculated from the inhibition rates", "value": 1070, "unit": "nM"}, {"measurement": "inhibition at 25 µM", "setting": "recombinant human PAI-1 [2]; read-out: Inhibition Rate of PAI-1 Activity (%)", "value": "> 99", "unit": "%"}, {"measurement": "IC50", "setting": "recombinant rat PAI-1; calculated from the inhibition rates", "value": 2190, "unit": "nM"}]}, {"smiles": "CC(C)Oc1ccc(N(Cc2ccc(C(C)(C)C)cc2)C(=O)C(=O)O)cc1-c1ccc(OC(F)(F)F)cc1", "note": "[Compound 211]", "values": [{"measurement": "Inhibition Rate of PAI-1 Activity (%)", "setting": "recombinant human PAI-1 [1]; Compound Concentration 0.1 μM", "value": 9, "unit": "%"}, {"measurement": "Inhibition Rate of PAI-1 Activity (%)", "setting": "recombinant human PAI-1 [1]; Compound Concentration 0.3 μM", "value": 16, "unit": "%"}, {"measurement": "Inhibition Rate of PAI-1 Activity (%)", "setting": "recombinant human PAI-1 [1]; Compound Concentration 1 μM", "value": 43, "unit": "%"}, {"measurement": "Inhibition Rate of PAI-1 Activity (%)", "setting": "recombinant human PAI-1 [1]; Compound Concentration 3 μM", "value": 96, "unit": "%"}, {"measurement": "Inhibition Rate of PAI-1 Activity (%)", "setting": "recombinant human PAI-1 [2]; Compound Concentration 5 μM", "value": 87, "unit": "%"}, {"measurement": "Inhibition Rate of PAI-1 Activity (%)", "setting": "recombinant human PAI-1 [2]; Compound Concentration 10 μM", "value": 96, "unit": "%"}, {"measurement": "Inhibition Rate of PAI-1 Activity (%)", "setting": "recombinant rat PAI-1; compound concentration 0.3 μM", "value": 4, "unit": "%"}, {"measurement": "Inhibition Rate of PAI-1 Activity (%)", "setting": "recombinant rat PAI-1; compound concentration 1 μM", "value": 17, "unit": "%"}, {"measurement": "Inhibition Rate of PAI-1 Activity (%)", "setting": "recombinant rat PAI-1; compound concentration 3 μM", "value": 78, "unit": "%"}, {"measurement": "Inhibition Rate of PAI-1 Activity (%)", "setting": "recombinant rat PAI-1; compound concentration 10 μM", "value": 87, "unit": "%"}]}, {"smiles": "CC(C)(C)c1ccc(CN(C(=O)C(=O)O)c2ccc(OCc3ccccc3)c(-c3ccc(OC(F)(F)F)cc3)c2)cc1", "note": "[Compound 212]", "values": [{"measurement": "Inhibition Rate of PAI-1 Activity (%)", "setting": "recombinant human PAI-1 [1]; Compound Concentration 0.1 μM", "value": 5, "unit": "%"}, {"measurement": "Inhibition Rate of PAI-1 Activity (%)", "setting": "recombinant human PAI-1 [1]; Compound Concentration 0.3 μM", "value": 15, "unit": "%"}, {"measurement": "Inhibition Rate of PAI-1 Activity (%)", "setting": "recombinant human PAI-1 [1]; Compound Concentration 1 μM", "value": 64, "unit": "%"}, {"measurement": "Inhibition Rate of PAI-1 Activity (%)", "setting": "recombinant human PAI-1 [1]; Compound Concentration 3 μM", "value": 98, "unit": "%"}, {"measurement": "Inhibition Rate of PAI-1 Activity (%)", "setting": "recombinant human PAI-1 [2]; Compound Concentration 5 μM", "value": 78, "unit": "%"}, {"measurement": "Inhibition Rate of PAI-1 Activity (%)", "setting": "recombinant human PAI-1 [2]; Compound Concentration 10 μM", "value": 95, "unit": "%"}, {"measurement": "Inhibition Rate of PAI-1 Activity (%)", "setting": "recombinant rat PAI-1; compound concentration 0.3 μM", "value": 8, "unit": "%"}, {"measurement": "Inhibition Rate of PAI-1 Activity (%)", "setting": "recombinant rat PAI-1; compound concentration 1 μM", "value": 40, "unit": "%"}, {"measurement": "Inhibition Rate of PAI-1 Activity (%)", "setting": "recombinant rat PAI-1; compound concentration 3 μM", "value": 73, "unit": "%"}, {"measurement": "Inhibition Rate of PAI-1 Activity (%)", "setting": "recombinant rat PAI-1; compound concentration 10 μM", "value": 67, "unit": "%"}]}, {"smiles": "CCN(CC)c1ccc(N(Cc2ccc(C(C)(C)C)cc2)C(=O)C(=O)O)cc1-c1ccc(OC(F)(F)F)cc1", "note": "[Compound 213]", "values": [{"measurement": "Inhibition Rate of PAI-1 Activity (%)", "setting": "recombinant human PAI-1 [1]; Compound Concentration 0.1 μM", "value": 0, "unit": "%"}, {"measurement": "Inhibition Rate of PAI-1 Activity (%)", "setting": "recombinant human PAI-1 [1]; Compound Concentration 0.3 μM", "value": 10, "unit": "%"}, {"measurement": "Inhibition Rate of PAI-1 Activity (%)", "setting": "recombinant human PAI-1 [1]; Compound Concentration 1 μM", "value": 48, "unit": "%"}, {"measurement": "Inhibition Rate of PAI-1 Activity (%)", "setting": "recombinant human PAI-1 [1]; Compound Concentration 3 μM", "value": 98, "unit": "%"}, {"measurement": "Inhibition Rate of PAI-1 Activity (%)", "setting": "recombinant human PAI-1 [2]; Compound Concentration 5 μM", "value": 93, "unit": "%"}, {"measurement": "Inhibition Rate of PAI-1 Activity (%)", "setting": "recombinant human PAI-1 [2]; Compound Concentration 10 μM", "value": 84, "unit": "%"}, {"measurement": "Inhibition Rate of PAI-1 Activity (%)", "setting": "recombinant rat PAI-1; compound concentration 0.3 μM", "value": 8, "unit": "%"}, {"measurement": "Inhibition Rate of PAI-1 Activity (%)", "setting": "recombinant rat PAI-1; compound concentration 1 μM", "value": 26, "unit": "%"}, {"measurement": "Inhibition Rate of PAI-1 Activity (%)", "setting": "recombinant rat PAI-1; compound concentration 3 μM", "value": 90, "unit": "%"}, {"measurement": "Inhibition Rate of PAI-1 Activity (%)", "setting": "recombinant rat PAI-1; compound concentration 10 μM", "value": 78, "unit": "%"}]}, {"smiles": "CN(C)c1ccc(N(Cc2ccc(C(C)(C)C)cc2)C(=O)C(=O)O)cc1-c1ccc(OC(F)(F)F)cc1", "note": "[Compound 214]", "values": [{"measurement": "Inhibition Rate of PAI-1 Activity (%)", "setting": "recombinant human PAI-1 [1]; Compound Concentration 0.1 μM", "value": 4, "unit": "%"}, {"measurement": "Inhibition Rate of PAI-1 Activity (%)", "setting": "recombinant human PAI-1 [1]; Compound Concentration 0.3 μM", "value": 2, "unit": "%"}, {"measurement": "Inhibition Rate of PAI-1 Activity (%)", "setting": "recombinant human PAI-1 [1]; Compound Concentration 1 μM", "value": 40, "unit": "%"}, {"measurement": "Inhibition Rate of PAI-1 Activity (%)", "setting": "recombinant human PAI-1 [1]; Compound Concentration 3 μM", "value": 96, "unit": "%"}, {"measurement": "Inhibition Rate of PAI-1 Activity (%)", "setting": "recombinant human PAI-1 [2]; Compound Concentration 5 μM", "value": 87, "unit": "%"}, {"measurement": "Inhibition Rate of PAI-1 Activity (%)", "setting": "recombinant human PAI-1 [2]; Compound Concentration 10 μM", "value": 93, "unit": "%"}, {"measurement": "Inhibition Rate of PAI-1 Activity (%)", "setting": "recombinant rat PAI-1; compound concentration 0.3 μM", "value": 0, "unit": "%"}, {"measurement": "Inhibition Rate of PAI-1 Activity (%)", "setting": "recombinant rat PAI-1; compound concentration 1 μM", "value": 8, "unit": "%"}, {"measurement": "Inhibition Rate of PAI-1 Activity (%)", "setting": "recombinant rat PAI-1; compound concentration 3 μM", "value": 77, "unit": "%"}, {"measurement": "Inhibition Rate of PAI-1 Activity (%)", "setting": "recombinant rat PAI-1; compound concentration 10 μM", "value": 97, "unit": "%"}]}, {"smiles": "Cc1cc(N(C)C)c(-c2ccc(OC(F)(F)F)cc2)cc1N(Cc1ccc(C(C)(C)C)cc1)C(=O)C(=O)O", "note": "[Compound 215]", "values": [{"measurement": "Inhibition Rate of PAI-1 Activity (%)", "setting": "recombinant human PAI-1 [1]; Compound Concentration 0.1 μM", "value": 7, "unit": "%"}, {"measurement": "Inhibition Rate of PAI-1 Activity (%)", "setting": "recombinant human PAI-1 [1]; Compound Concentration 0.3 μM", "value": 18, "unit": "%"}, {"measurement": "Inhibition Rate of PAI-1 Activity (%)", "setting": "recombinant human PAI-1 [1]; Compound Concentration 1 μM", "value": 54, "unit": "%"}, {"measurement": "Inhibition Rate of PAI-1 Activity (%)", "setting": "recombinant human PAI-1 [1]; Compound Concentration 3 μM", "value": 95, "unit": "%"}, {"measurement": "Inhibition Rate of PAI-1 Activity (%)", "setting": "recombinant human PAI-1 [2]; Compound Concentration 5 μM", "value": 90, "unit": "%"}, {"measurement": "Inhibition Rate of PAI-1 Activity (%)", "setting": "recombinant human PAI-1 [2]; Compound Concentration 10 μM", "value": 92, "unit": "%"}, {"measurement": "Inhibition Rate of PAI-1 Activity (%)", "setting": "recombinant rat PAI-1; compound concentration 0.3 μM", "value": 2, "unit": "%"}, {"measurement": "Inhibition Rate of PAI-1 Activity (%)", "setting": "recombinant rat PAI-1; compound concentration 1 μM", "value": 16, "unit": "%"}, {"measurement": "Inhibition Rate of PAI-1 Activity (%)", "setting": "recombinant rat PAI-1; compound concentration 3 μM", "value": 84, "unit": "%"}, {"measurement": "Inhibition Rate of PAI-1 Activity (%)", "setting": "recombinant rat PAI-1; compound concentration 10 μM", "value": 97, "unit": "%"}]}]}
